Values belong to the compound of their own block, whether it stands above or below them.
How the values were obtained:
trypsin [1] = assay: Insulin digestion in immobilized enzyme reactor, buffer screening (Table 7); assay type: biochemical, porcine; details: IMER; for Digested / Peptide / Undigested: 70°C, 60 s; for digestion efficiency: CaCl2 as high as 500 mM
porcine trypsin [2] = test system: T1, porcine trypsin; assay: Insulin digestion by trypsin in solution, buffer screening (Table 9); assay type: biochemical; details: for Digested / Peptide / Undigested: 37°C, 18 h; for trypsin digestion: high concentrations, as high as 500 mM
T1 construct: purchased

trypsin [3] = assay: Human IgG digestion in response to calcium concentration (Table 11); assay type: biochemical, porcine; details: CaCl2 above 1 mM
BSA = assay: Screen of additives for prevention of aggregation (Table 5); assay type: physicochemical, bovine; details: 12.5 mg/mL BSA, 70°C, four columns in printed order, heads missing
[4] = Plasma digestion with buffer/additive combinations, aggregation; assay type: physicochemical, beagle; details: 100mM CaCl2, 90 minutes
[5] = Aggregation of BSA in IMER, ammonium acetate, 5mM CaCl2, 5% glycerol (Table 34); assay type: physicochemical; details: 5% and 10% (Tables 34 and 35), 50mM ammonium acetate, 5mM CaCl2, 70°C
[6] = Aggregate formation on digestion at high protein loads; assay type: physicochemical, monkey; details: 10% final concentration with 500 mM CaCl2
[7] = Aggregation of BSA in IMER, ammonium acetate, 5mM CaCl2, 0.1% octylglucoside (Table 33); assay type: physicochemical; details: 0.1% in 50mM ammonium acetate, 5mM CaCl2, 70°C
porcine trypsin [8] = test system: T1, porcine trypsin; assay: Comparing digestion buffers, solution digestion of insulin; assay type: biochemical; details: 37°C, 18 hours, versus tris buffer containing calcium chloride

SMILES: [Ca+2].[Cl-].[Cl-] [CaCl2, calcium chloride]
Digested (trypsin [1]; 0.05M): 2725600 | Peptide (trypsin [1]; 0.05M): 1172085 | Undigested (trypsin [1]; 0.05M): 802494 | Digested (trypsin [1]; 0.1M): 2844924 | Peptide (trypsin [1]; 0.1M): 1221898 | Undigested (trypsin [1]; 0.1M): 609138 | Digested (trypsin [1]; 0.25M): 2950068 | Peptide (trypsin [1]; 0.25M): 1264212 | Undigested (trypsin [1]; 0.25M): 571246 | Digested (trypsin [1]; 0.5M): 3031625 | Peptide (trypsin [1]; 0.5M): 1290650 | Undigested (trypsin [1]; 0.5M): 234332 | Digested (trypsin [1]; 1M): 3066738 | Peptide (trypsin [1]; 1M): 1263872 | Undigested (trypsin [1]; 1M): 16129 | digestion efficiency (trypsin [1]): An increase in digestion was observed | digestion efficiency (trypsin [1]; listed as calcium chloride): digestion efficiency increased dramatically | Digested (porcine trypsin [2]; 0.05M): 2007752 | Peptide (porcine trypsin [2]; 0.05M): 860714 | Undigested (porcine trypsin [2]; 0.05M): 2746822 | Digested (porcine trypsin [2]; 0.1M): 2377399 | Peptide (porcine trypsin [2]; 0.1M): 1074482 | Undigested (porcine trypsin [2]; 0.1M): 2139571 | Digested (porcine trypsin [2]; 0.25M): 3241428 | Peptide (porcine trypsin [2]; 0.25M): 1430859 | Undigested (porcine trypsin [2]; 0.25M): 2885626 | Digested (porcine trypsin [2]; 0.5M): 3340960 | Peptide (porcine trypsin [2]; 0.5M): 1474912 | Undigested (porcine trypsin [2]; 0.5M): 856015 | Digested (porcine trypsin [2]; 1M): 3203158 | Peptide (porcine trypsin [2]; 1M): 1344334 | Undigested (porcine trypsin [2]; 1M): 949033 | trypsin digestion (porcine trypsin [2]): An increase in digestion was observed | trypsin digestion (porcine trypsin [2]; listed as calcium chloride): dramatically improve trypsin digestion | enzyme efficiency (trypsin [3]): increase enzyme efficiency

Digested (trypsin [1]; 5%): 2051870 | Peptide (trypsin [1]; 5%): 828171 | Undigested (trypsin [1]; 5%): 2217803 | Digested (trypsin [1]; 10%): 1779261 | Peptide (trypsin [1]; 10%): 697488 | Undigested (trypsin [1]; 10%): 2432362 | Digested (trypsin [1]; 20%): 1167862 | Peptide (trypsin [1]; 20%): 445736 | Undigested (trypsin [1]; 20%): 3174668 | aggregation (BSA; 5%): Ν | aggregation (BSA; 10%): Ν | aggregation ([4]; 10% in 50mM TBS): no aggregation | formation of aggregates [6]: prevented the formation of aggregates
SMILES: OCC(O)CO [Glycerol]
Digested (porcine trypsin [2]; 5%): 1007768 | Peptide (porcine trypsin [2]; 5%): 432166 | Undigested (porcine trypsin [2]; 5%): 3685707 | Digested (porcine trypsin [2]; 10%): 833521 | Peptide (porcine trypsin [2]; 10%): 353626 | Undigested (porcine trypsin [2]; 10%): 4404492 | Digested (porcine trypsin [2]; 20%): 654553 | Peptide (porcine trypsin [2]; 20%): 275165 | Undigested (porcine trypsin [2]; 20%): 5163829 | digestion efficiency (porcine trypsin [2]; lower to moderate concentrations): does not significantly, negatively impact digestion efficiency | sample solubility and aggregation [5]: enhances sample solubility and prevents aggregation

Digested (trypsin [1]; 0.05%): 2394275 | Peptide (trypsin [1]; 0.05%): 958775 | Undigested (trypsin [1]; 0.05%): 1730676 | Digested (trypsin [1]; 0.1%): 2255277 | Peptide (trypsin [1]; 0.1%): 891922 | Undigested (trypsin [1]; 0.1%): 2114234 | Digested (trypsin [1]; 0.15%): 2430665 | Peptide (trypsin [1]; 0.15%): 942341 | Undigested (trypsin [1]; 0.15%): 2160281 | Digested (trypsin [1]; 0.2%): 2255277 | Peptide (trypsin [1]; 0.2%): 891922 | Undigested (trypsin [1]; 0.2%): 2114234 | aggregation (BSA; additive concentration not given): Ν | aggregation ([4]; 0.1% in 50mM TBS): significant aggregation
SMILES: CCCCCCCCO[C@@H]1O[C@H](CO)[C@@H](O)[C@H](O)[C@H]1O [OGS, octylglucoside]
Digested (porcine trypsin [2]; 0.05%): 1424601 | Peptide (porcine trypsin [2]; 0.05%): 581489 | Undigested (porcine trypsin [2]; 0.05%): 3798587 | Digested (porcine trypsin [2]; 0.1%): 1616907 | Peptide (porcine trypsin [2]; 0.1%): 675287 | Undigested (porcine trypsin [2]; 0.1%): 4128179 | Digested (porcine trypsin [2]; 0.15%): 1538290 | Peptide (porcine trypsin [2]; 0.15%): 636117 | Undigested (porcine trypsin [2]; 0.15%): 3751677 | Digested (porcine trypsin [2]; 0.2%): 1574071 | Peptide (porcine trypsin [2]; 0.2%): 619589 | Undigested (porcine trypsin [2]; 0.2%): 3732438 | sample solubility and aggregation [7]: enhances sample solubility and prevents aggregation

enzyme activity (porcine trypsin [8]): significantly higher
SMILES: N.O=C(O)O [ammonium bicarbonate]

Reference: patent WO2015077660A1, “Enzyme reactor system enabling enhanced enzymatic digestion, analyte solubility and improved mass spectrometric compatibility” (priority 2013, dated 2014)
